Source: publication PMC9681850, “Structural basis of synthetic agonist activation of the nuclear receptor REV-ERB” (Nature Communications, 2022)

Experiments:
REV-ERBα = test system: REV-ERBα; parameters: method as in ref 21 = [21]; 21. Bourotte, et al. Derivatives of 6-substituted triazolopyridazines as Rev-Erb agonists. (ed. States, U.) (United States, 2012).; conditions: enhancement of REV-ERBα/NCoR interaction, biochemical or cell-based assays; cited from earlier work
REV-ERBα F488A = biological target: T1, REV-ERBα F488A (Homo sapiens, UniProt P20393, F488A); experiment: two-hybrid reporter assay with mutant receptor; format: cell-based; conditions: F488A vs WT
T1 construct: WT or mutant Gal4DBD- full length REV-ERBα fusion and NCoR1-VP16 fusion protein; expressed in transfected cells; host or cells: HEK293 cells with Gal4UAS luciferase reporter stably integrated
Protocol: The removal of the bulkier Phe488 sidechain may allow for the ligand binding pocket to wrap around the ligand more tightly, which may explain the higher activity of this mutant REV-ERB.
The NCoR-Vp16 plasmid and REV-ERBα/β-FL GAL4-DBD wild-type or point mutation plasmids were incubated with the transfection agent, Lipofectamine 2000. GFP plasmid was also in the transfection mix to confirm transfection efficiency. HEK cells were plated in 10 cm dishes for western blot analysis, and HEK UAS-luc cells were plated in 96 well plates for luciferase assay analysis. Prior to cellular adherence, transfection mix was added. The cells and transfection mix were incubated at 37 °C in a humidified atmosphere of 5% CO2. The transfection incubation lasted overnight for luciferase assays and 48 h for protein isolation/western blot analysis. For luciferase assays, REV-ERB agonists were added in an 11-point serial dilution the day following overnight transfection. Cells were incubated with the compound for 24 h, prior to luciferin addition and luminescence read out.

[1] = mouse liver microsome stability assay; format: in vitro ADME; conditions: liver microsomes
From the text: We thank the reviewers for the constructive comments, and we have responded to each of the […]
Overall, this is a commendable structure-function study on the transcriptional repressor, REV-ERBα. It includes the identification of an agonist that belongs to the non-heme class of small ligands. The study combines cell-based and in vitro, in vivo, and crystallographic analyses of the ligand-receptor molecular complex.
However, as a spring-board for therapeutic drug discovery, there are a few additional issues that may need to be clarified.
1. In the HEK293 2-hybrid assay, the ERB agonists are described as activators of transcription.
Perhaps, they would be more appropriately described as 'repressors'.
We have updated the manuscript to clarify this issue. In the original manuscript, we used the following to describe how the 2-hybrid assay switches agonists from repressors to activators to allow for better resolution of activity, “This format of the assay essentially functions as a mammalian 2-hybrid assay and detects REVERB agonists as activators of transcription effectively enhancing the sensitivity of such an assay from the typical one hybrid system that detects enhancement of transcriptional repression.” […]

PR = PR (Homo sapiens, UniProt P06401); experiment: Gal4-UAS reporter assay for nuclear receptor specificity; format: cell-based; conditions: Gal4 DBD-NR, HEK293 cells, 10 µM
From the text: (§1) We assessed the specificity of STL1267 using both in house nuclear receptor Gal4-NR reporter assays and the NIMH Psychoactive Drug Screening Program (PDSP) assays. We assessed the specificity of STL1267 in the PDSP’s radioligand displacement assays, screening for binding to off-target GPCRs, ion channels, transporters, and other drug targets (Table S1). Of the 43 targets assessed in this panel, we observed no detectable binding in 41 of them. […] Additional assessment in serotonin transporter and kappa opioid receptor activity in a functional assay may be warranted to determine absolute specificity.
(§2) Receptor RLBA Ki Receptor activity
(§3) Suppl ementary Tabl e 1. Speci fi ci ty of STL1267. […]
(§4) HEK293 cells transfected with Gal4-UAS l uc i f eras e and […]

ERα = ERα (Homo sapiens, UniProt P03372); experiment: as above; format: cell-based; conditions: Gal4 DBD-NR, HEK293 cells, 10 µM; ERa
From the text: as §1, §2, §3, §4

MR = MR (Homo sapiens, UniProt P08235); experiment: as above; format: cell-based; conditions: Gal4 DBD-NR, HEK293 cells, 10 µM
From the text: as §1, §2, §3, §4

RARα = RARα (Homo sapiens, UniProt P10276); experiment: as above; format: cell-based; conditions: Gal4 DBD-NR, HEK293 cells, 10 µM; RARa
From the text: as §1, §2, §3, §4

TRα = biological target: T2, TRα (Homo sapiens, UniProt P10827); experiment: as above; format: cell-based; conditions: Gal4 DBD-NR, HEK293 cells, 10 µM; TRa
T2 construct: purchased NIMH Psychoactive Drug Screening Program (PDSP); in-house Gal4-NR LBD cotransfection assays
From the text: as §1, §2, §3, §4

VDR = VDR (Homo sapiens, UniProt P11473); experiment: as above; format: cell-based; conditions: Gal4 DBD-NR, HEK293 cells, 10 µM
From the text: as §1, §2, §3, §4

AR = AR (Homo sapiens, UniProt P10275); experiment: as above; format: cell-based; conditions: Gal4 DBD-NR, HEK293 cells, 10 µM
From the text: as §1, §2, §3, §4

LXRα = LXRα (Homo sapiens, UniProt Q13133); experiment: as above; format: cell-based; conditions: Gal4 DBD-NR, HEK293 cells, 10 µM; LXRa
From the text: as §1, §2, §3, §4

ERβ = ERβ (Homo sapiens, UniProt Q92731); experiment: as above; format: cell-based; conditions: Gal4 DBD-NR, HEK293 cells, 10 µM; ERb
From the text: as §1, §2, §3, §4

CAR = CAR (Homo sapiens, UniProt Q14994); experiment: CAR assay; format: cell-based
CAR, sequence (Q14994 whole entry): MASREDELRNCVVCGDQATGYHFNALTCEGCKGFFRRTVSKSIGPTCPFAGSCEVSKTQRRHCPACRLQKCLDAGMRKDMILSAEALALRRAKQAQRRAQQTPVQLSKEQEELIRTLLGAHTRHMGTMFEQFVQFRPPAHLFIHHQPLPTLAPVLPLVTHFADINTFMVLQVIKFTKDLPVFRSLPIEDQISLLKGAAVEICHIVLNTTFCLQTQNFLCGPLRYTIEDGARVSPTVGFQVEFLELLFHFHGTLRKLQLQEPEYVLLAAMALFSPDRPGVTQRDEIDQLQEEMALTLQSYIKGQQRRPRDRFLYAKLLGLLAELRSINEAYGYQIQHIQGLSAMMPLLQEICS

RARα, sequence (P10276 183-417 limits assumed): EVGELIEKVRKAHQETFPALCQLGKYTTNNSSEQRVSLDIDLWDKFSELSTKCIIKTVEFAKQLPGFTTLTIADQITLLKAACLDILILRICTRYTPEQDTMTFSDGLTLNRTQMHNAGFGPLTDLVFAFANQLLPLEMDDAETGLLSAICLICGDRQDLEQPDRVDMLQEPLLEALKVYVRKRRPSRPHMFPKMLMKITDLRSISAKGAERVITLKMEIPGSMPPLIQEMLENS
PR, sequence (P06401 679-933 limits assumed): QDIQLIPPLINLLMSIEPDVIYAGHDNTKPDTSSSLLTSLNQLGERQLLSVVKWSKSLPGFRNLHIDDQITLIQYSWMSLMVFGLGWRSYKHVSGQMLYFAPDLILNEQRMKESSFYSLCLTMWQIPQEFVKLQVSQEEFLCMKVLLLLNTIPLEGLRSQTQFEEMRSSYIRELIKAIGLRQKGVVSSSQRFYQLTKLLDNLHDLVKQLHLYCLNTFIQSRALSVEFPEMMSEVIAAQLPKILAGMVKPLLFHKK
T2 sequence (P10827 1-410 isoform P10827-2): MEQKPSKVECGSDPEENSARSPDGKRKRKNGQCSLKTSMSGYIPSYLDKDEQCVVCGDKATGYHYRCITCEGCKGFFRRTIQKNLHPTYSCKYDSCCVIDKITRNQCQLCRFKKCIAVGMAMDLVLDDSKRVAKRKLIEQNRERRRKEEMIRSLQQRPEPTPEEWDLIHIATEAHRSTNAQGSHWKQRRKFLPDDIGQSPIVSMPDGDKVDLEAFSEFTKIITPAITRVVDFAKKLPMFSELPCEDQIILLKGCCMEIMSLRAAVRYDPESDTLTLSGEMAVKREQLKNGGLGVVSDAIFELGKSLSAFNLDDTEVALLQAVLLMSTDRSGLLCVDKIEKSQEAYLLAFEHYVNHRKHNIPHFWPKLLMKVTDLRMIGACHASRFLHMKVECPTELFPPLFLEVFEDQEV
LXRα, sequence (Q13133 209-447 limits assumed): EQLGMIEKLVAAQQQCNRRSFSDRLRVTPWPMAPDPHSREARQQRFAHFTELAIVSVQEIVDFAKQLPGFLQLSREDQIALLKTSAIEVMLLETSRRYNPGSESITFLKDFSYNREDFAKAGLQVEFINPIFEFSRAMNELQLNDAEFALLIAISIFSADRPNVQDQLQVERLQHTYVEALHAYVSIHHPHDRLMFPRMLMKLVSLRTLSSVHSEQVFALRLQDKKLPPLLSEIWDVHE
ERα, sequence (P03372 311-547 limits assumed): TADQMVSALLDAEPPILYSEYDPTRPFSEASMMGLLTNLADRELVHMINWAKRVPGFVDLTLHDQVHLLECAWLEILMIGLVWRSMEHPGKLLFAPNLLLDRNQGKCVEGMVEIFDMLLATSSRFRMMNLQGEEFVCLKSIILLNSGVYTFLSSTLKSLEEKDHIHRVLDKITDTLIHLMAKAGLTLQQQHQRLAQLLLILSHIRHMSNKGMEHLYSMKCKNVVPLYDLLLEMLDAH
MR, sequence (P08235 726-984 limits assumed): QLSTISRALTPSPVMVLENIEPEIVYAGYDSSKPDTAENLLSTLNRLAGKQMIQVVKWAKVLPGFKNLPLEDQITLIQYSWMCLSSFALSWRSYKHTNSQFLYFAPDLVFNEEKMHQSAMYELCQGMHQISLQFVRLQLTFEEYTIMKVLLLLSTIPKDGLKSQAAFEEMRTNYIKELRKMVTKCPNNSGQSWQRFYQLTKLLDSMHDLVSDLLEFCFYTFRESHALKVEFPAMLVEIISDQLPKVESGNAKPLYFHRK
VDR, sequence (P11473 127-427 limits assumed): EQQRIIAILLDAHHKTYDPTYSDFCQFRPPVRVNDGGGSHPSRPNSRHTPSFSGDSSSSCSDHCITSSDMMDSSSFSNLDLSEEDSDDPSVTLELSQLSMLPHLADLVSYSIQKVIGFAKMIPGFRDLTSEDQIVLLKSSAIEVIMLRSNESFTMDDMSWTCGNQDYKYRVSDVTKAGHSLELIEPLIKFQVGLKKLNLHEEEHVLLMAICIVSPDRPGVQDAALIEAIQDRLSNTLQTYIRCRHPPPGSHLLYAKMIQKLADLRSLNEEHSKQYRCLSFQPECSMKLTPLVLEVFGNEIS
AR, sequence (P10275 669-920 limits assumed): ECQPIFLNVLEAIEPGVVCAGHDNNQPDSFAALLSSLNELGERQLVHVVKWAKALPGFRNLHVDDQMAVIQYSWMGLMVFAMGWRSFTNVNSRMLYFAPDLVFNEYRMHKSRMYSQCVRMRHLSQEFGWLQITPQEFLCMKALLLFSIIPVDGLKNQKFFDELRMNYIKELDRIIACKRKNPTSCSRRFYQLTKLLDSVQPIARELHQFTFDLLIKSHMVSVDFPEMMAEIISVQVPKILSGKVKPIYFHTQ
ERβ, sequence (Q92731 264-498 limits assumed): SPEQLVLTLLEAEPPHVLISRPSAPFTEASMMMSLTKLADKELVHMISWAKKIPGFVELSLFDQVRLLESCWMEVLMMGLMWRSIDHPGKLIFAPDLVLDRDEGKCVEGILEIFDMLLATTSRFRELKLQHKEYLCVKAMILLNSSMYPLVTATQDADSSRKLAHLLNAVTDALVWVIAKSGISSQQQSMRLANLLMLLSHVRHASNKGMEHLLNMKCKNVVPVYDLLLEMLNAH

half-life [1]: 34 min
activity (PR): did not detect activity
activity (ERα): did not detect activity
activity (MR): did not detect activity
activity (RARα): did not detect activity
activity (TRα): did not detect activity
activity (VDR): did not detect activity
activity (AR): did not detect activity
activity (LXRα): did not detect activity
activity (ERβ): did not detect activity
activity at CAR (CAR): did not have activity
SMILES: Clc1nnc2ccc(Oc3ccccc3-c3ccccc3)nn12 [STL1267]
potency (REV-ERBα): 100 to 300 nM
effect of mutation on NCoR recruitment activity (REV-ERBα F488A): impressive improvement in potency and efficacy
